The values that follow are results of earlier work, collected in US8597613B2, “Radiolabeled lymphatic staining agents and methods for making” (Iso-Tex Diagnostics, Inc, priority 2004, dated 2013).

The conditions of the series: 0.1-0.5 cc injected into the breast following wire-localization procedures.

For `CN(C)c1ccc2nc3ccc(=[N+](C)C)cc-3sc2c1` [methylene blue, phenothiazin-5-ium-3,7-bis(dimethylamino)-chloride], the reported adverse events entry is given as “no reported adverse events”.
